Measurements reported in paper PMC4657039 (Assay and Drug Development Technologies, 2014).

Columns and labels:
[1] = target: human Cav2.1/β4/α2δ1 (Homo sapiens, UniProt O00555); type: cell-based
[2] = target: human Cav3.2 (Homo sapiens, UniProt O95180); type: cell-based
[3] = target: T1, human Cav2.2/β3/α2δ1 (Homo sapiens, UniProt Q00975); type: cell-based
[4] = target: human Cav1.2/β2/α2δ1 (Homo sapiens, UniProt Q13936)
[5] = target: T1, human Cav2.2/β3/α2δ1; assay: IonWorks Barracuda repetitive test pulse train; type: cell-based; settings: Cav2.2, 30 pulse train 0.1 Hz

Chain of human Cav3.2 (O95180 whole entry): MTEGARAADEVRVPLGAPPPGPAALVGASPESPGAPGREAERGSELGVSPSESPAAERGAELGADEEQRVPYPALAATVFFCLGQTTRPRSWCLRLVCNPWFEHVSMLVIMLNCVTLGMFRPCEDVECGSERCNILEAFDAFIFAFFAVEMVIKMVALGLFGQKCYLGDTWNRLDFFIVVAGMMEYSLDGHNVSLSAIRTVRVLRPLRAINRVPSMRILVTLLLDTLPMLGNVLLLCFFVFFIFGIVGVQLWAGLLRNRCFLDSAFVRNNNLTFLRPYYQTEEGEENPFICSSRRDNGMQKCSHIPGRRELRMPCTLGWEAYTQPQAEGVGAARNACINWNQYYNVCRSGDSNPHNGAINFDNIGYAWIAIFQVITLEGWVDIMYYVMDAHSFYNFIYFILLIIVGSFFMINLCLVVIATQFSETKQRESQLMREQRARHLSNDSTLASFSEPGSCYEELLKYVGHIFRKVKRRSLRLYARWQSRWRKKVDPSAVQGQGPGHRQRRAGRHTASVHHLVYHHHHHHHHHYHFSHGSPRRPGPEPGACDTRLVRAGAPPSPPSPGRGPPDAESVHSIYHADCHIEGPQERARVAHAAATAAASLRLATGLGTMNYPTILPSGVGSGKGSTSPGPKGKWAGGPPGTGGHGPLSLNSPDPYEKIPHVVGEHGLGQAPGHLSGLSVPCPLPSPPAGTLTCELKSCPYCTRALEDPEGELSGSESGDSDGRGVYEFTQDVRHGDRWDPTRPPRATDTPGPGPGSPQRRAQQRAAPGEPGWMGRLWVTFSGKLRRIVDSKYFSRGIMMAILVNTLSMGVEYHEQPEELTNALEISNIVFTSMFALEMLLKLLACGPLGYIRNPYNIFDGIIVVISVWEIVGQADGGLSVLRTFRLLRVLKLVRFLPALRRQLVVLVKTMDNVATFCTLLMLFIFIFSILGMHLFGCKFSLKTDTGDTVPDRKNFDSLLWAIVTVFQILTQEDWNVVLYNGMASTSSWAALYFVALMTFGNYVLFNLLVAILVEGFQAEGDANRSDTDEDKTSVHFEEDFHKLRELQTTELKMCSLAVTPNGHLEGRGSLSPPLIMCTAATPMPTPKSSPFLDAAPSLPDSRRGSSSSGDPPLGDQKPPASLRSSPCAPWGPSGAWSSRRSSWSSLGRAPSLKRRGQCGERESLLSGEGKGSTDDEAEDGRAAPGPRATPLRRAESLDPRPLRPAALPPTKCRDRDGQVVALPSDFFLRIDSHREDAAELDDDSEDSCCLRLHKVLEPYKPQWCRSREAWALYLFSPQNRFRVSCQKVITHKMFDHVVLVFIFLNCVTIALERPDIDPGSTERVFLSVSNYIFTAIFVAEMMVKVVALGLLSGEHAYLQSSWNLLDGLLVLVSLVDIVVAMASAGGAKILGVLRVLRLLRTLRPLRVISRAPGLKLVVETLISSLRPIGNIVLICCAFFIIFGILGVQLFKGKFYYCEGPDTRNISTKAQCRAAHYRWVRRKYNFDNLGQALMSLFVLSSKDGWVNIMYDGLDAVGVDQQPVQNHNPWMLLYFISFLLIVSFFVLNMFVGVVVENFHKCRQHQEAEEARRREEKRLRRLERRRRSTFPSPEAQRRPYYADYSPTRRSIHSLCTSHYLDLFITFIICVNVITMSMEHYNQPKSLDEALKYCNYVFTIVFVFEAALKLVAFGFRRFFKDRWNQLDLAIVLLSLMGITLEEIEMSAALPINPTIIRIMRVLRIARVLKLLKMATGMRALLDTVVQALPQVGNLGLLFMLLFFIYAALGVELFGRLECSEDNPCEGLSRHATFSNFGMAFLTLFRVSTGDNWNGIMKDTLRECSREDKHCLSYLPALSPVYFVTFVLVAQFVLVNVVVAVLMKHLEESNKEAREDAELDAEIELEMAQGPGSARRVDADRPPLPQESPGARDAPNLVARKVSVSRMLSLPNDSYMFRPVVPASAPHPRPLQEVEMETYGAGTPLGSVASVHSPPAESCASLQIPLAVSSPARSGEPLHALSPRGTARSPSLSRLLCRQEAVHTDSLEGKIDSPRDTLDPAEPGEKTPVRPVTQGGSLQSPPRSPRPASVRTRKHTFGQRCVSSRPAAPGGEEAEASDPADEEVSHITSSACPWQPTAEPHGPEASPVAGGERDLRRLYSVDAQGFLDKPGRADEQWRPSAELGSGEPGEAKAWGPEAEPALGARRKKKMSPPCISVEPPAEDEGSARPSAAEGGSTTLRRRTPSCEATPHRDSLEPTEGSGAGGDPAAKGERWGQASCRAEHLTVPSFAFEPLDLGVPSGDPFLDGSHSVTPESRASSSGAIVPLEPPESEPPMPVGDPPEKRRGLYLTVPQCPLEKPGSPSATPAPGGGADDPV

COC(=O)C1=C(C)NC(C)=C([N+](=O)[O-])[C@H]1c1ccccc1C(F)(F)F [BAY K8644, (S)-(−)-BAY K8644]
effect on Cav2.1 at high concentration ([1]; concentrations ≥10 μM): nonspecific inhibition | effect on Cav3.2 at high concentration ([2]; concentrations ≥10 μM): nonspecific inhibition | effect on Cav2.2 at high concentration ([3]; concentrations ≥10 μM): nonspecific inhibition | effect on Cav1.2 currents ([4]; 0.3 μM, test pulse 10 mV, holding −90 mV, 60-s CP to −50 mV): potentiated | effect on Cav1.2 at high concentration ([4]; concentrations ≥10 μM): nonspecific inhibition | extent of potentiation of Cav1.2 channels ([4]; dose–response, Fig. 2B): twofold potentiation

COCC(=O)O[C@]1(CCN(C)CCCc2nc3ccccc3[nH]2)CCc2cc(F)ccc2[C@@H]1C(C)C [Mibefradil, mibefradil]
potency of inhibition at TP30 compared with TP1 [5]: about seven times more potent | potency of use-dependent block in Cav3.2 versus Cav1.2 ([2]; use-dependent block, multiple mode assay): fourfold more potent | Cav2.2 blocking characteristics in multiple mode assay ([3]; current traces Fig. 5B, 10 μM mibefradil, 30 μM verapamil): use-dependent, but not inactivation-dependent block augmentation

COC(=O)C1=C(C)NC(C)=C(C(=O)OC)C1c1ccccc1[N+](=O)[O-] [Nifedipine, nifedipine]
sensitivity of Cav3.2 channels ([2]; concentrations up to 3 μM (not shown)): insensitive

O=c1[nH]c2ccccc2n1C1CCN(CCCC(c2ccc(F)cc2)c2ccc(F)cc2)CC1 [Pimozide, pimozide]
IC50 [1]: > 30 µM | IC50 [3]: > 30 µM
